Legend:
Assay type in all cases: in vivo
[1] = tested on: upland rice (Oryza sp., var. Tebonnet, RICE); assay: Post-emerge test, crop safety; details: rating scale 0-100 (0 no damage, 100 complete death), 14 days after application
In short: (§1)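 Fourteen days after spraying, crop and weed injury was graded visually from 0, no effect, to 100, every plant dead. Test substances were dissolved in acetone and applied at 15–1000 g ai/ha with a flat-fan nozzle. Application was either pre-emergence, one day after sowing, or post-emergence at the 2–3 leaf stage.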

[2] = tested on: field corn (Zea mays L., var. Dekalb 535, CORN); assay: Post-emerge test, crop safety; details: rating scale 0-100 (0 no damage, 100 complete death), 14 days after application
In short: as §1

[3] = tested on: redroot pigweed (Amaranthus retroflexus, AMARE); assay: Pre-emerge test, greenhouse herbicide activity screening; details: rating scale 0-100, 14 days after application
In short: (§2)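 Visual ratings on a 0-100 scale (0 no damage, 100 all plants dead) were taken at 14 days after treatment. Rates of 15-1000 g ai/ha in acetone, 187 l/ha, were sprayed onto soil one day after planting (pre-emerge) or onto 2-3 leaf plants with 0.25% v/v surfactant (post-emerge).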

[4] = tested on: upland rice (Oryza sp., var. Tebonnet, RICE); assay: Pre-emerge test, crop safety; details: rating scale 0-100, 14 days after application
In short: (§3)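 Applied at 15–1000 g ai/ha from acetone in 187 l/ha spray volume. Post-emergence applications included 0.25% v/v non-ionic surfactant and reached plants sown 8–21 days before. Pre-emergence applications were incorporated by surface watering. Efficacy or crop damage was rated on a 0–100 scale after 14 days.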

[5] = tested on: field corn (Zea mays L., var. Dekalb 535, CORN); assay: Pre-emerge test, crop safety; details: rating scale 0-100, 14 days after application
In short: as §3

[6] = tested on: large crabgrass (Digitaria sanguinalis, DIGSA); assay: Post-emerge test, greenhouse herbicide activity screening; details: rating scale 0-100 (0 no damage, 100 complete death), 14 days after application
In short: as §2

[7] = tested on: velvetleaf (Abutilon theophrasti, ABUTH); assay: as above; details: rating scale 0-100 (0 no damage, 100 complete death), 14 days after application
In short: as §2

[8] = tested on: ivyleaf morningglory (Ipomoea hederacea, IPOHE); assay: as above; details: rating scale 0-100 (0 no damage, 100 complete death), 14 days after application
In short: as §2

[9] = tested on: green foxtail (Setaria viridis, SETVI); assay: as above; details: rating scale 0-100 (0 no damage, 100 complete death), 14 days after application
In short: as §2

[10] = tested on: barnyardgrass (Echinochloa crus-galli, ECHCG); assay: as above; details: rating scale 0-100 (0 no damage, 100 complete death), 14 days after application
In short: as §2

[11] = tested on: lambsquarters (Chenopodium album, CHEAL); assay: as above; details: rating scale 0-100 (0 no damage, 100 complete death), 14 days after application
In short: as §2

[12] = tested on: redroot pigweed (Amaranthus retroflexus, AMARE); assay: as above; details: rating scale 0-100 (0 no damage, 100 complete death), 14 days after application
In short: as §2

[13] = tested on: sicklepod (Cassia obtusifolia, CASOB); assay: as above; details: rating scale 0-100 (0 no damage, 100 complete death), 14 days after application
In short: as §2

[14] = tested on: johnsongrass (Sorghum halepense, SORHA); assay: as above; details: rating scale 0-100 (0 no damage, 100 complete death), 14 days after application
In short: as §2

[15] = tested on: large crabgrass (Digitaria sanguinalis, DIGSA); assay: Pre-emerge test, greenhouse herbicide activity screening; details: rating scale 0-100, 14 days after application
In short: as §1

[16] = tested on: velvetleaf (Abutilon theophrasti, ABUTH); assay: as above; details: rating scale 0-100, 14 days after application
In short: as §1

[17] = tested on: ivyleaf morningglory (Ipomoea hederacea, IPOHE); assay: as above; details: rating scale 0-100, 14 days after application
In short: as §1

[18] = tested on: green foxtail (Setaria viridis, SETVI); assay: as above; details: rating scale 0-100, 14 days after application
In short: as §1

[19] = tested on: barnyardgrass (Echinochloa crus-galli, ECHCG); assay: as above; details: rating scale 0-100, 14 days after application
In short: as §1

[20] = tested on: lambsquarters (Chenopodium album, CHEAL); assay: as above; details: rating scale 0-100, 14 days after application
In short: as §1

[21] = tested on: sicklepod (Cassia obtusifolia, CASOB); assay: as above; details: rating scale 0-100, 14 days after application
In short: as §1

[22] = tested on: johnsongrass (Sorghum halepense, SORHA); assay: as above; details: rating scale 0-100, 14 days after application
In short: as §1

COc1c(Cl)cc(F)c(-n2c(=O)cc(C(F)(F)F)n(C)c2=O)c1CC(Cl)C(=O)OCC(Br)CBr (single isomer, unassigned) [14-30]
Post-emerge phytotoxicity rating RICE (crop damage) ([1]; Rate 63 g ai/ha): 0
Post-emerge phytotoxicity rating RICE (crop damage) ([1]; Rate 250 g ai/ha): 0
Post-emerge phytotoxicity rating CORN (crop damage) ([2]; Rate 63 g ai/ha): 10
Post-emerge phytotoxicity rating CORN (crop damage) ([2]; Rate 250 g ai/ha): 20
Pre-emerge herbicidal activity, phytotoxicity rating AMARE ([3]; 63 g ai/ha): 70
Pre-emerge herbicidal activity, phytotoxicity rating AMARE ([3]; 250 g ai/ha): 100
Pre-emerge phytotoxicity rating, crop damage RICE ([4]; 63 g ai/ha): 0
Pre-emerge phytotoxicity rating, crop damage RICE ([4]; 250 g ai/ha): 0
Pre-emerge phytotoxicity rating, crop damage CORN ([5]; 63 g ai/ha): 0
Pre-emerge phytotoxicity rating, crop damage CORN ([5]; 250 g ai/ha): 0
Post-emerge Herbicidal Activity, phytotoxicity rating DIGSA ([6]; Rate 63 g ai/ha): 60
Post-emerge Herbicidal Activity, phytotoxicity rating DIGSA ([6]; Rate 250 g ai/ha): 100
Post-emerge Herbicidal Activity, phytotoxicity rating ABUTH ([7]; Rate 63 g ai/ha): 60
Post-emerge Herbicidal Activity, phytotoxicity rating ABUTH ([7]; Rate 250 g ai/ha): 100
Post-emerge Herbicidal Activity, phytotoxicity rating IPOHE ([8]; Rate 63 g ai/ha): 0
Post-emerge Herbicidal Activity, phytotoxicity rating IPOHE ([8]; Rate 250 g ai/ha): 50
Post-emerge Herbicidal Activity, phytotoxicity rating SETVI ([9]; Rate 63 g ai/ha): 0
Post-emerge Herbicidal Activity, phytotoxicity rating SETVI ([9]; Rate 250 g ai/ha): 30
Post-emerge Herbicidal Activity, phytotoxicity rating ECHCG ([10]; Rate 63 g ai/ha): 100
Post-emerge Herbicidal Activity, phytotoxicity rating ECHCG ([10]; Rate 250 g ai/ha): 100
Post-emerge Herbicidal Activity, phytotoxicity rating CHEAL ([11]; Rate 63 g ai/ha): 50
Post-emerge Herbicidal Activity, phytotoxicity rating CHEAL ([11]; Rate 250 g ai/ha): 100
Post-emerge Herbicidal Activity, phytotoxicity rating AMARE ([12]; Rate 63 g ai/ha): 70
Post-emerge Herbicidal Activity, phytotoxicity rating AMARE ([12]; Rate 250 g ai/ha): 100
Post-emerge Herbicidal Activity, phytotoxicity rating CASOB ([13]; Rate 63 g ai/ha): 20
Post-emerge Herbicidal Activity, phytotoxicity rating CASOB ([13]; Rate 250 g ai/ha): 60
Post-emerge Herbicidal Activity, phytotoxicity rating SORHA ([14]; Rate 63 g ai/ha): 0
Post-emerge Herbicidal Activity, phytotoxicity rating SORHA ([14]; Rate 250 g ai/ha): 50
Pre-emerge herbicidal activity, phytotoxicity rating DIGSA ([15]; 63 g ai/ha): 0
Pre-emerge herbicidal activity, phytotoxicity rating DIGSA ([15]; 250 g ai/ha): 90
Pre-emerge herbicidal activity, phytotoxicity rating ABUTH ([16]; 63 g ai/ha): 0
Pre-emerge herbicidal activity, phytotoxicity rating ABUTH ([16]; 250 g ai/ha): 50
Pre-emerge herbicidal activity, phytotoxicity rating IPOHE ([17]; 63 g ai/ha): 0
Pre-emerge herbicidal activity, phytotoxicity rating IPOHE ([17]; 250 g ai/ha): 0
Pre-emerge herbicidal activity, phytotoxicity rating SETVI ([18]; 63 g ai/ha): 0
Pre-emerge herbicidal activity, phytotoxicity rating SETVI ([18]; 250 g ai/ha): 0
Pre-emerge herbicidal activity, phytotoxicity rating ECHCG ([19]; 63 g ai/ha): 0
Pre-emerge herbicidal activity, phytotoxicity rating ECHCG ([19]; 250 g ai/ha): 0
Pre-emerge herbicidal activity, phytotoxicity rating CHEAL ([20]; 63 g ai/ha): 0
Pre-emerge herbicidal activity, phytotoxicity rating CHEAL ([20]; 250 g ai/ha): 80
Pre-emerge herbicidal activity, phytotoxicity rating CASOB ([21]; 63 g ai/ha): 0
Pre-emerge herbicidal activity, phytotoxicity rating CASOB ([21]; 250 g ai/ha): 0
Pre-emerge herbicidal activity, phytotoxicity rating SORHA ([22]; 63 g ai/ha): 0
Pre-emerge herbicidal activity, phytotoxicity rating SORHA ([22]; 250 g ai/ha): 0

COc1c(Cl)cc(F)c(-n2c(=O)cc(C(F)(F)F)n(C)c2=O)c1CC(Cl)C(=O)OCC(Br)CBr (single isomer, unassigned) [14-31]
Post-emerge phytotoxicity rating RICE (crop damage) ([1]; Rate 63 g ai/ha): 0
Post-emerge phytotoxicity rating RICE (crop damage) ([1]; Rate 250 g ai/ha): 0
Post-emerge phytotoxicity rating CORN (crop damage) ([2]; Rate 63 g ai/ha): 10
Post-emerge phytotoxicity rating CORN (crop damage) ([2]; Rate 250 g ai/ha): 50
Pre-emerge herbicidal activity, phytotoxicity rating AMARE ([3]; 63 g ai/ha): 70
Pre-emerge herbicidal activity, phytotoxicity rating AMARE ([3]; 250 g ai/ha): 100
Pre-emerge phytotoxicity rating, crop damage RICE ([4]; 63 g ai/ha): 0
Pre-emerge phytotoxicity rating, crop damage RICE ([4]; 250 g ai/ha): 0
Pre-emerge phytotoxicity rating, crop damage CORN ([5]; 63 g ai/ha): 0
Pre-emerge phytotoxicity rating, crop damage CORN ([5]; 250 g ai/ha): 30
Post-emerge Herbicidal Activity, phytotoxicity rating DIGSA ([6]; Rate 63 g ai/ha): 95
Post-emerge Herbicidal Activity, phytotoxicity rating DIGSA ([6]; Rate 250 g ai/ha): 100
Post-emerge Herbicidal Activity, phytotoxicity rating ABUTH ([7]; Rate 63 g ai/ha): 90
Post-emerge Herbicidal Activity, phytotoxicity rating ABUTH ([7]; Rate 250 g ai/ha): 100
Post-emerge Herbicidal Activity, phytotoxicity rating IPOHE ([8]; Rate 63 g ai/ha): 10
Post-emerge Herbicidal Activity, phytotoxicity rating IPOHE ([8]; Rate 250 g ai/ha): 70
Post-emerge Herbicidal Activity, phytotoxicity rating SETVI ([9]; Rate 63 g ai/ha): 0
Post-emerge Herbicidal Activity, phytotoxicity rating SETVI ([9]; Rate 250 g ai/ha): 50
Post-emerge Herbicidal Activity, phytotoxicity rating ECHCG ([10]; Rate 63 g ai/ha): 100
Post-emerge Herbicidal Activity, phytotoxicity rating ECHCG ([10]; Rate 250 g ai/ha): 100
Post-emerge Herbicidal Activity, phytotoxicity rating CHEAL ([11]; Rate 63 g ai/ha): 70
Post-emerge Herbicidal Activity, phytotoxicity rating CHEAL ([11]; Rate 250 g ai/ha): 90
Post-emerge Herbicidal Activity, phytotoxicity rating AMARE ([12]; Rate 63 g ai/ha): 90
Post-emerge Herbicidal Activity, phytotoxicity rating AMARE ([12]; Rate 250 g ai/ha): 100
Post-emerge Herbicidal Activity, phytotoxicity rating CASOB ([13]; Rate 63 g ai/ha): 50
Post-emerge Herbicidal Activity, phytotoxicity rating CASOB ([13]; Rate 250 g ai/ha): 50
Post-emerge Herbicidal Activity, phytotoxicity rating SORHA ([14]; Rate 63 g ai/ha): 0
Post-emerge Herbicidal Activity, phytotoxicity rating SORHA ([14]; Rate 250 g ai/ha): 20
Pre-emerge herbicidal activity, phytotoxicity rating DIGSA ([15]; 63 g ai/ha): 0
Pre-emerge herbicidal activity, phytotoxicity rating DIGSA ([15]; 250 g ai/ha): 90
Pre-emerge herbicidal activity, phytotoxicity rating ABUTH ([16]; 63 g ai/ha): 0
Pre-emerge herbicidal activity, phytotoxicity rating ABUTH ([16]; 250 g ai/ha): 70
Pre-emerge herbicidal activity, phytotoxicity rating IPOHE ([17]; 63 g ai/ha): 0
Pre-emerge herbicidal activity, phytotoxicity rating IPOHE ([17]; 250 g ai/ha): 50
Pre-emerge herbicidal activity, phytotoxicity rating SETVI ([18]; 63 g ai/ha): 0
Pre-emerge herbicidal activity, phytotoxicity rating SETVI ([18]; 250 g ai/ha): 0
Pre-emerge herbicidal activity, phytotoxicity rating ECHCG ([19]; 63 g ai/ha): 0
Pre-emerge herbicidal activity, phytotoxicity rating ECHCG ([19]; 250 g ai/ha): 0
Pre-emerge herbicidal activity, phytotoxicity rating CHEAL ([20]; 63 g ai/ha): 40
Pre-emerge herbicidal activity, phytotoxicity rating CHEAL ([20]; 250 g ai/ha): 50
Pre-emerge herbicidal activity, phytotoxicity rating CASOB ([21]; 63 g ai/ha): 0
Pre-emerge herbicidal activity, phytotoxicity rating CASOB ([21]; 250 g ai/ha): 0
Pre-emerge herbicidal activity, phytotoxicity rating SORHA ([22]; 63 g ai/ha): 0
Pre-emerge herbicidal activity, phytotoxicity rating SORHA ([22]; 250 g ai/ha): 0

Reference: US6355799B1, “Substituted benzene compounds, process for their preparation, and herbicidal and defoliant compositions containing them” (ISK Americas Incorporated, priority 1997, dated 2002)
